Measured values taken from patent EP4707280A1, “1,4-CINEOLE DERIVATIVE AND INTERMEDIATE THEREOF, HERBICIDE CONTAINING SAID DERIVATIVE AS ACTIVE INGREDIENT, METHOD FOR USING HERBICIDE, AND METHOD FOR PREPARING AGROCHEMICAL COMPOSITION” (HOKKO CHEMICAL INDUSTRY CO., LTD., priority 2023, dated 2024).

Tests used:
Assay type in all cases: in vivo
Monochoria vaginalis [1] = assay: Test Example 6: herbicidal effect test by application during growth period of paddy rice (low dose); conditions: Pontederia vaginalis; 7.5 g per 10 ares; applied seven days after sowing, flooded pots; 14 days after application; read-out: weed inhibition rate
Procedure, shortened: (§1)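 Paddy soil in flooded Wagner pots (about 3 cm water), weeds sown at 0–1 cm, 30 seeds each, grown in a glass greenhouse. Seven days after sowing, water-diluted emulsifiable concentrate was dropped into the water at 7.5 g active ingredient per 10 ares. Weed inhibition rate (%) was scored 14 days after application, in duplicate.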

[2] = system: Echinochloa crus-galli var. formosensis; assay: as above; conditions: Echinochloa crus-galli; 7.5 g per 10 ares; applied seven days after sowing, flooded pots; 14 days after application; read-out: weed inhibition rate
Procedure, shortened: as §1

Monochoria vaginalis [3] = assay: Test Example 2: herbicidal effect test by application during growth period of paddy rice; conditions: Pontederia vaginalis; 120 g per 10 ares; applied seven days after sowing, flooded pots; 14 days after application; read-out: weed inhibition rate
Procedure, shortened: (§2)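 Weeds sown into puddled, flooded paddy soil received a post-emergence water application of emulsifiable concentrate at 120 g active ingredient per 10 ares, seven days after sowing. Herbicidal effect was rated 14 days later as inhibition (%).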

[4] = system: Echinochloa crus-galli var. formosensis; assay: as above; conditions: Echinochloa crus-galli; 120 g per 10 ares; applied seven days after sowing, flooded pots; 14 days after application; read-out: weed inhibition rate
Procedure, shortened: as §2

Scirpus juncoides [5] = assay: Test Example 1: herbicidal effect test by soil application in paddy rice; conditions: 120 g active ingredient per 10 ares, applied immediately after sowing, flooded pots, 14 days after application; for pest or weed control at 1200 g/ha: Schoenoplectiella juncoides, soil, 336 h, read-out: weed inhibition rate
Procedure, shortened: (§3)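 Paddy soil in Wagner pots (1/10,000 acre), fertilized and puddled; 30 seeds per species sown at 0–1 cm, flooded to ~3 cm, greenhouse. Water-diluted emulsifiable concentrate dropped onto flooded pots right after sowing at 120 g active ingredient per 10 ares.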

[6] = system: Echinochloa crus-galli var. formosensis; assay: as above; conditions: 120 g active ingredient per 10 ares, applied immediately after sowing, flooded pots, 14 days after application; for pest or weed control at 1200 g/ha: Echinochloa crus-galli, soil, 336 h, read-out: weed inhibition rate
Procedure, shortened: as §3

Echinochloa crus-galli = assay: Test Example 7: herbicidal effect test by soil application in upland field (low dose); conditions: Echinochloa crus-galli, 7.5 g per 10 ares, sprayed one day after sowing, 14 days after application, read-out: weed inhibition rate
Procedure, shortened: (§4)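 Low-dose soil treatment at 7.5 g a.i. per 10 a, applied as a diluted emulsifiable concentrate sprayed onto the soil surface one day after sowing in upland alluvial loam. Duplicate pots; percent weed inhibition is read 14 days after application.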

Digitaria ciliaris = assay: as above; conditions: Digitaria ciliaris, 7.5 g per 10 ares, sprayed one day after sowing, 14 days after application, read-out: weed inhibition rate
Procedure, shortened: as §4

Scirpus juncoides [7] = assay: Test Example 2: herbicidal effect test by application during growth period of paddy rice; conditions: Schoenoplectiella juncoides; 120 g per 10 ares; applied seven days after sowing, flooded pots; 14 days after application; read-out: weed inhibition rate
Procedure, shortened: as §2

CC(C)[C@]12C[C@@H](OCc3ccccc3F)[C@](C)(C[C@H]1C)O2 [1-94, (1S,2R,4R,5R)-2-[(2-fluorophenyl)methoxy]-1,5-dimethyl-4-isopropyl-7-oxabicyclo[2.2.1]heptane]
≥ 80%: inhibition at 75 g/ha (Monochoria vaginalis [1]) | inhibition at 75 g/ha [2] | inhibition at 1200 g/ha (Monochoria vaginalis [3]) | inhibition at 1200 g/ha [4] | pest or weed control at 1200 g/ha (Scirpus juncoides [5]) | pest or weed control at 1200 g/ha [6] | inhibition at 75 g/ha (Echinochloa crus-galli) | inhibition at 75 g/ha (Digitaria ciliaris)

CC(C)[C@]12C[C@@H](OCc3cccc(Cl)c3)[C@](C)(C[C@@H]1Br)O2 [1-692, (1S,2R,4R,5S)-5-bromo-2-[(3-chlorophenyl)methoxy]-1-methyl-4-isopropyl-7-oxabicyclo[2.2.1]heptane]
≥ 80%: inhibition at 75 g/ha [2] | inhibition at 1200 g/ha (Scirpus juncoides [7]) | inhibition at 1200 g/ha (Monochoria vaginalis [3]) | inhibition at 1200 g/ha [4] | pest or weed control at 1200 g/ha (Scirpus juncoides [5]) | pest or weed control at 1200 g/ha [6] | inhibition at 75 g/ha (Echinochloa crus-galli) | inhibition at 75 g/ha (Digitaria ciliaris)

CC(C)[C@]12C[C@@H](OCc3ccccc3Br)[C@](C)(CC1=O)O2 [2-13, (1R,4S,5R)-5-((2-bromobenzyl)oxy)-1-isopropyl-4-methyl-7-oxabicyclo[2.2.1]heptan-2-one]
≥ 80%: inhibition at 75 g/ha (Monochoria vaginalis [1]) | inhibition at 75 g/ha [2] | inhibition at 1200 g/ha (Scirpus juncoides [7]) | inhibition at 1200 g/ha (Monochoria vaginalis [3]) | inhibition at 1200 g/ha [4] | pest or weed control at 1200 g/ha (Scirpus juncoides [5]) | pest or weed control at 1200 g/ha [6] | inhibition at 75 g/ha (Echinochloa crus-galli) | inhibition at 75 g/ha (Digitaria ciliaris)

CC(C)[C@]12C[C@@H](OCc3ccccc3Cl)[C@](C)(C[C@@H]1Br)O2 [1-20, (1S,2R,4R,5S)-5-bromo-2-[(2-chlorophenyl)methoxy]-1-methyl-4-isopropyl-7-oxabicyclo[2.2.1]heptane]
≥ 80%: inhibition at 75 g/ha (Monochoria vaginalis [1]) | inhibition at 75 g/ha [2] | inhibition at 1200 g/ha (Scirpus juncoides [7]) | inhibition at 1200 g/ha (Monochoria vaginalis [3]) | inhibition at 1200 g/ha [4] | pest or weed control at 1200 g/ha (Scirpus juncoides [5]) | pest or weed control at 1200 g/ha [6] | inhibition at 75 g/ha (Echinochloa crus-galli) | inhibition at 75 g/ha (Digitaria ciliaris)

CC(C)[C@]12C[C@@H](OCc3ccccc3F)[C@](C)(CC1C)O2 (stereo partly drawn) [1-92, (1S,2R,4R)-2-((2-fluorobenzyl)oxy)-4-isopropyl-1,5-dimethyl-7-oxabicyclo[2.2.1]heptane]
≥ 80%: inhibition at 75 g/ha (Monochoria vaginalis [1]) | inhibition at 75 g/ha [2] | inhibition at 1200 g/ha (Scirpus juncoides [7]) | inhibition at 1200 g/ha (Monochoria vaginalis [3]) | inhibition at 1200 g/ha [4] | pest or weed control at 1200 g/ha (Scirpus juncoides [5]) | pest or weed control at 1200 g/ha [6] | inhibition at 75 g/ha (Echinochloa crus-galli) | inhibition at 75 g/ha (Digitaria ciliaris)

CC(C)[C@]12C[C@@H](OCc3cccs3)[C@](C)(C[C@@H]1Br)O2 [1-721, (1S,2R,4R,5S)-5-bromo-1-methyl-4-isopropyl-2-(thiophen-2-ylmethoxy)-7-oxabicyclo[2.2.1]heptane]
≥ 80%: inhibition at 75 g/ha (Monochoria vaginalis [1]) | inhibition at 75 g/ha [2] | inhibition at 1200 g/ha (Monochoria vaginalis [3]) | inhibition at 1200 g/ha [4] | pest or weed control at 1200 g/ha (Scirpus juncoides [5]) | pest or weed control at 1200 g/ha [6] | inhibition at 75 g/ha (Echinochloa crus-galli) | inhibition at 75 g/ha (Digitaria ciliaris)

CC(C)[C@]12C[C@@H](OCc3c(Cl)cccc3Cl)[C@](C)(C[C@@H]1Br)O2 [1-712, (1S,2R,4R,5S)-5-bromo-2-[(2,6-dichlorophenyl)methoxy]-1-methyl-4-isopropyl-7-oxabicyclo[2.2.1]heptane]
≥ 80%: inhibition at 75 g/ha (Monochoria vaginalis [1]) | inhibition at 75 g/ha [2] | inhibition at 1200 g/ha (Scirpus juncoides [7]) | inhibition at 1200 g/ha (Monochoria vaginalis [3]) | inhibition at 1200 g/ha [4] | pest or weed control at 1200 g/ha (Scirpus juncoides [5]) | pest or weed control at 1200 g/ha [6] | inhibition at 75 g/ha (Echinochloa crus-galli) | inhibition at 75 g/ha (Digitaria ciliaris)

Cc1cccc(CO[C@@H]2C[C@]3(C(C)C)O[C@@]2(C)C[C@@H]3Br)c1 [1-680, (1S,2R,4R,5S)-5-bromo-1-methyl-2-[(3-methylphenyl)methoxy]-4-isopropyl-7-oxabicyclo[2.2.1]heptane]
≥ 80%: inhibition at 75 g/ha [2] | inhibition at 1200 g/ha (Scirpus juncoides [7]) | inhibition at 1200 g/ha (Monochoria vaginalis [3]) | inhibition at 1200 g/ha [4] | pest or weed control at 1200 g/ha (Scirpus juncoides [5]) | pest or weed control at 1200 g/ha [6] | inhibition at 75 g/ha (Echinochloa crus-galli) | inhibition at 75 g/ha (Digitaria ciliaris)

CC(C)[C@]12C[C@@H](OCc3cc(F)ccc3F)[C@](C)(CC1=O)O2 [2-18, (1R,4S,5R)-5-((2,5-difluorobenzyl)oxy)-1-isopropyl-4-methyl-7-oxabicyclo[2.2.1]heptan-2-one]
≥ 80%: inhibition at 75 g/ha [2] | inhibition at 1200 g/ha (Scirpus juncoides [7]) | inhibition at 1200 g/ha (Monochoria vaginalis [3]) | inhibition at 1200 g/ha [4] | pest or weed control at 1200 g/ha (Scirpus juncoides [5]) | pest or weed control at 1200 g/ha [6] | inhibition at 75 g/ha (Echinochloa crus-galli) | inhibition at 75 g/ha (Digitaria ciliaris)

Cc1cccc(C)c1CO[C@@H]1C[C@]2(C(C)C)O[C@@]1(C)CC2=O [2-5, (1R,4S,5R)-5-((2,6-dimethylbenzyl)oxy)-1-isopropyl-4-methyl-7-oxabicyclo[2.2.1]heptan-2-one]
≥ 80%: inhibition at 1200 g/ha (Monochoria vaginalis [3]) | inhibition at 1200 g/ha [4] | pest or weed control at 1200 g/ha (Scirpus juncoides [5]) | pest or weed control at 1200 g/ha [6] | inhibition at 75 g/ha (Echinochloa crus-galli) | inhibition at 75 g/ha (Digitaria ciliaris)

CC(C)C1C[C@]2(C)O[C@@]1(C(C)C)C[C@H]2OCc1ccccc1F (stereo partly drawn) [1-133, (1S,2R,4R)-2-[(2-fluorobenzyl)oxy]-4,5-isopropyl-1-methyl-7-oxabicyclo[2.2.1]heptane]
≥ 80%: inhibition at 75 g/ha (Monochoria vaginalis [1]) | inhibition at 75 g/ha [2] | inhibition at 1200 g/ha (Scirpus juncoides [7]) | inhibition at 1200 g/ha (Monochoria vaginalis [3]) | inhibition at 1200 g/ha [4] | weed inhibition rate (Scirpus juncoides [5]) | weed inhibition rate [6] | inhibition at 75 g/ha (Echinochloa crus-galli) | inhibition at 75 g/ha (Digitaria ciliaris)

CC(C)[C@]12C[C@@H](OCc3ccccc3F)[C@](C)(C[C@@H]1OCC1CC1)O2 [1-1603, (1S,2R,4R,5S)-5-(cyclopropylmethoxy)-2-[(2-fluorophenyl)methoxy]-1-methyl-4-isopropyl-7-oxabicyclo[2.2.1]heptane]
≥ 80%: inhibition at 75 g/ha [2] | inhibition at 1200 g/ha (Scirpus juncoides [7]) | inhibition at 1200 g/ha (Monochoria vaginalis [3]) | inhibition at 1200 g/ha [4] | pest or weed control at 1200 g/ha (Scirpus juncoides [5]) | pest or weed control at 1200 g/ha [6] | inhibition at 75 g/ha (Echinochloa crus-galli) | inhibition at 75 g/ha (Digitaria ciliaris)

Cc1ccccc1CO[C@@H]1C[C@]2(C(C)C)O[C@@]1(C)C[C@@H]2I [1-741, (1S,2R,4R,5S)-5-iodo-1-methyl-2-[(2-methylphenyl)methoxy]-4-isopropyl-7-oxabicyclo[2.2.1]heptane]
≥ 80%: inhibition at 75 g/ha [2] | inhibition at 1200 g/ha (Scirpus juncoides [7]) | inhibition at 1200 g/ha (Monochoria vaginalis [3]) | inhibition at 1200 g/ha [4] | pest or weed control at 1200 g/ha (Scirpus juncoides [5]) | pest or weed control at 1200 g/ha [6] | inhibition at 75 g/ha (Echinochloa crus-galli) | inhibition at 75 g/ha (Digitaria ciliaris)

CC(C)[C@]12C[C@@H](OCc3c(F)cccc3Br)[C@](C)(C[C@@H]1Br)O2 [1-1600, (1S,2R,4R,5S)-5-bromo-2-[(2-bromo-6-fluorophenyl)methoxy]-1-methyl-4-isopropyl-7-oxabicyclo[2.2.1]heptane]
≥ 80%: inhibition at 75 g/ha (Monochoria vaginalis [1]) | inhibition at 75 g/ha [2] | inhibition at 1200 g/ha (Scirpus juncoides [7]) | inhibition at 1200 g/ha (Monochoria vaginalis [3]) | inhibition at 1200 g/ha [4] | pest or weed control at 1200 g/ha (Scirpus juncoides [5]) | pest or weed control at 1200 g/ha [6] | inhibition at 75 g/ha (Echinochloa crus-galli) | inhibition at 75 g/ha (Digitaria ciliaris)

Cc1ccccc1CO[C@@H]1C[C@]2(C(C)C)O[C@@]1(C)C/C2=N\O [2-191, (1R,4S,5R,E)-1-isopropyl-4-methyl-5-((2-methylbenzyl)oxy)-7-oxabicyclo[2.2.1]heptan-2-one oxime]
≥ 80%: inhibition at 75 g/ha (Monochoria vaginalis [1]) | inhibition at 75 g/ha [2] | inhibition at 1200 g/ha (Scirpus juncoides [7]) | inhibition at 1200 g/ha (Monochoria vaginalis [3]) | inhibition at 1200 g/ha [4] | pest or weed control at 1200 g/ha (Scirpus juncoides [5]) | pest or weed control at 1200 g/ha [6] | inhibition at 75 g/ha (Echinochloa crus-galli) | inhibition at 75 g/ha (Digitaria ciliaris)

CCCO[C@H]1C[C@]2(C)O[C@@]1(C(C)C)C[C@H]2OCc1ccccc1F [1-1604, (1S,2R,4R,SS)-2-[(2-fluorophenyl)methoxy]-1-methyl-4-isopropyl-5-propoxy-7-oxabicyclo[2.2.1]heptane]
≥ 80%: inhibition at 75 g/ha (Monochoria vaginalis [1]) | inhibition at 75 g/ha [2] | inhibition at 1200 g/ha (Scirpus juncoides [7]) | inhibition at 1200 g/ha [4] | weed inhibition rate (Scirpus juncoides [5]) | weed inhibition rate [6] | inhibition at 75 g/ha (Echinochloa crus-galli) | inhibition at 75 g/ha (Digitaria ciliaris)
